Test results from ChEMBL document CHEMBL3885861, “Open TG-GATES”.

Species: Rattus norvegicus
Assay: Open TG-GATES - Regimen: Single
Assay type: toxicity, organism-based, Sprague-Dawley
Set-up: regimen Single, gender Male, age 6 weeks
Conditions: in vivo, po, 0 mg/kg, route gavage, dose level Control; for APTT / Bas / Eos / Fbg / Hb / Lym / MCH / MCHC / MCV / Mono / Neu / PT / Plat / RBC / Ret / WBC: tissue Blood; for KIDNEY_L / KIDNEY_R / KIDNEY_TOTAL: tissue Kidney; for LIVER: tissue Liver; for ALP / ALT / AST / BUN / CRE / Ca / Cl / DBIL / GLC / IP / K / LDH / Na / PL / RALB / TBIL / TC / TG / TP / gamma-GTP: tissue Plasma

Q: `OCCN1CCN(CCCN2c3ccccc3Sc3ccc(C(F)(F)F)cc32)CC1` [FLUPHENAZINE] was tested. Which TERMINAL_BW (3 h) did it give?
A: 199 g

Q: What about the APTT (3 h) of the same molecule?
A: 16.1 s

Q: And the Bas (3 h)?
A: 0%

Q: What about the Eos (3 h) of the same molecule?
A: 0.6%

Q: And the Fbg (3 h)?
A: 228.2 mg/dL

Q: And the Hb (3 h)?
A: 13.1 g/dL

Q: What about the Lym (3 h) of the same molecule?
A: 80.4%

Q: And the MCH (3 h)?
A: 21.2 pg

Q: And the MCHC (3 h)?
A: 33%

Q: What about the MCV (3 h) of the same molecule?
A: 64.3 fL

Q: What about the Mono (3 h) of the same molecule?
A: 6.8%

Q: What about the Neu (3 h) of the same molecule?
A: 12.2%

Q: And the PT (3 h)?
A: 12.5 s

Q: And the Plat (3 h)?
A: 106.1 x10_4/uL

Q: What about the RBC (3 h) of the same molecule?
A: 617.6 x10_4/ul

Q: And the Ret (3 h)?
A: 7.6%

Q: What about the WBC (3 h) of the same molecule?
A: 113.1 x10_2/uL

Q: What about the KIDNEY_L (3 h) of the same molecule?
A: 0.9 g

Q: What about the KIDNEY_R (3 h) of the same molecule?
A: 0.9 g

Q: What about the KIDNEY_TOTAL (3 h) of the same molecule?
A: 1.9 g

Q: And the LIVER (3 h)?
A: 9.6 g

Q: And the ALP (3 h)?
A: 888.6 IU/L

Q: And the ALT (3 h)?
A: 34.8 IU/L

Q: What about the AST (3 h) of the same molecule?
A: 63.4 IU/L

Q: What about the BUN (3 h) of the same molecule?
A: 13 mg/dL

Q: And the CRE (3 h)?
A: 0.5 mg/dL

Q: And the Ca (3 h)?
A: 10.9 mg/dL

Q: What about the Cl (3 h) of the same molecule?
A: 104.2 meq/L

Q: What about the DBIL (3 h) of the same molecule?
A: 0.006 mg/dL

Q: And the GLC (3 h)?
A: 179 mg/dL

Q: And the IP (3 h)?
A: 10.3 mg/dL

Q: And the K (3 h)?
A: 5.1 meq/L

Q: And the LDH (3 h)?
A: 86.2 IU/L

Q: What about the Na (3 h) of the same molecule?
A: 138 meq/L

Q: And the PL (3 h)?
A: 154.2 mg/dL

Q: What about the RALB (3 h) of the same molecule?
A: 3.9 g/dL

Q: What about the TBIL (3 h) of the same molecule?
A: 0.3 mg/dL

Q: And the TC (3 h)?
A: 85.8 mg/dL

Q: And the TG (3 h)?
A: 53.6 mg/dL

Q: And the TP (3 h)?
A: 5.5 g/dL

Q: And the gamma-GTP (3 h)?
A: 1.4 IU/L

Q: What about the TERMINAL_BW (6 h) of the same molecule?
A: 196.6 g

Q: And the APTT (6 h)?
A: 16.4 s

Q: And the Bas (6 h)?
A: 0%

Q: What about the Eos (6 h) of the same molecule?
A: 1%

Q: And the Fbg (6 h)?
A: 214.4 mg/dL

Q: What about the Hb (6 h) of the same molecule?
A: 13 g/dL

Q: What about the Lym (6 h) of the same molecule?
A: 75.8%

Q: What about the MCH (6 h) of the same molecule?
A: 21.6 pg

Q: What about the MCHC (6 h) of the same molecule?
A: 33.2%

Q: And the MCV (6 h)?
A: 65.1 fL

Q: And the Mono (6 h)?
A: 8.2%

Q: What about the Neu (6 h) of the same molecule?
A: 15.4%

Q: What about the PT (6 h) of the same molecule?
A: 12.8 s

Q: And the Plat (6 h)?
A: 108.7 x10_4/uL

Q: And the RBC (6 h)?
A: 601.2 x10_4/ul

Q: And the Ret (6 h)?
A: 8.4%

Q: And the WBC (6 h)?
A: 105.2 x10_2/uL

Q: What about the KIDNEY_L (6 h) of the same molecule?
A: 0.9 g

Q: And the KIDNEY_R (6 h)?
A: 0.9 g

Q: What about the KIDNEY_TOTAL (6 h) of the same molecule?
A: 1.8 g

Q: And the LIVER (6 h)?
A: 8.6 g

Q: What about the ALP (6 h) of the same molecule?
A: 819.6 IU/L

Q: And the ALT (6 h)?
A: 33.6 IU/L

Q: And the AST (6 h)?
A: 67.4 IU/L

Q: What about the BUN (6 h) of the same molecule?
A: 11.2 mg/dL

Q: What about the CRE (6 h) of the same molecule?
A: 0.5 mg/dL

Q: And the Ca (6 h)?
A: 10.2 mg/dL

Q: What about the Cl (6 h) of the same molecule?
A: 105.8 meq/L

Q: What about the DBIL (6 h) of the same molecule?
A: 0.03 mg/dL

Q: What about the GLC (6 h) of the same molecule?
A: 180.8 mg/dL

Q: And the IP (6 h)?
A: 10 mg/dL

Q: What about the K (6 h) of the same molecule?
A: 4.7 meq/L

Q: What about the LDH (6 h) of the same molecule?
A: 93 IU/L

Q: And the Na (6 h)?
A: 137 meq/L

Q: And the PL (6 h)?
A: 118.2 mg/dL

Q: And the RALB (6 h)?
A: 3.6 g/dL

Q: And the TBIL (6 h)?
A: 0.4 mg/dL

Q: And the TC (6 h)?
A: 65.8 mg/dL

Q: And the TG (6 h)?
A: 36.8 mg/dL

Q: And the TP (6 h)?
A: 5.3 g/dL

Q: And the gamma-GTP (6 h)?
A: 1.6 IU/L

Q: What about the TERMINAL_BW (9 h) of the same molecule?
A: 197.8 g

Q: What about the APTT (9 h) of the same molecule?
A: 16.6 s

Q: What about the Bas (9 h) of the same molecule?
A: 0%

Q: And the Eos (9 h)?
A: 0.8%

Q: What about the Fbg (9 h) of the same molecule?
A: 220.8 mg/dL

Q: What about the Hb (9 h) of the same molecule?
A: 12.6 g/dL

Q: What about the Lym (9 h) of the same molecule?
A: 77.6%

Q: What about the MCH (9 h) of the same molecule?
A: 21.7 pg

Q: And the MCHC (9 h)?
A: 33.1%

Q: And the MCV (9 h)?
A: 65.6 fL

Q: And the Mono (9 h)?
A: 9%

Q: And the Neu (9 h)?
A: 13.2%

Q: And the PT (9 h)?
A: 12.5 s

Q: And the Plat (9 h)?
A: 111.9 x10_4/uL

Q: What about the RBC (9 h) of the same molecule?
A: 581.6 x10_4/ul

Q: What about the Ret (9 h) of the same molecule?
A: 8.6%

Q: And the WBC (9 h)?
A: 107.8 x10_2/uL

Q: And the KIDNEY_L (9 h)?
A: 0.9 g

Q: And the KIDNEY_R (9 h)?
A: 0.9 g

Q: And the KIDNEY_TOTAL (9 h)?
A: 1.9 g

Q: And the LIVER (9 h)?
A: 8.6 g

Q: And the ALP (9 h)?
A: 831.6 IU/L

Q: What about the ALT (9 h) of the same molecule?
A: 29.2 IU/L

Q: What about the AST (9 h) of the same molecule?
A: 58.8 IU/L

Q: And the BUN (9 h)?
A: 11.8 mg/dL

Q: What about the CRE (9 h) of the same molecule?
A: 0.5 mg/dL

Q: What about the Ca (9 h) of the same molecule?
A: 10.3 mg/dL

Q: What about the Cl (9 h) of the same molecule?
A: 103.8 meq/L

Q: And the DBIL (9 h)?
A: 0.012 mg/dL

Q: And the GLC (9 h)?
A: 186.4 mg/dL

Q: What about the IP (9 h) of the same molecule?
A: 10.2 mg/dL

Q: And the K (9 h)?
A: 4.6 meq/L

Q: What about the LDH (9 h) of the same molecule?
A: 86.4 IU/L

Q: And the Na (9 h)?
A: 137.2 meq/L

Q: What about the PL (9 h) of the same molecule?
A: 145 mg/dL

Q: What about the RALB (9 h) of the same molecule?
A: 3.7 g/dL

Q: What about the TBIL (9 h) of the same molecule?
A: 0.3 mg/dL

Q: What about the TC (9 h) of the same molecule?
A: 84.6 mg/dL

Q: And the TG (9 h)?
A: 46.8 mg/dL

Q: And the TP (9 h)?
A: 5.4 g/dL

Q: What about the gamma-GTP (9 h) of the same molecule?
A: 1.2 IU/L

Q: What about the TERMINAL_BW (24 h) of the same molecule?
A: 211.2 g

Q: And the APTT (24 h)?
A: 16.8 s

Q: And the Bas (24 h)?
A: 0%

Q: And the Eos (24 h)?
A: 0.2%

Q: And the Fbg (24 h)?
A: 217.6 mg/dL

Q: And the Hb (24 h)?
A: 12.9 g/dL

Q: What about the Lym (24 h) of the same molecule?
A: 80.8%

Q: And the MCH (24 h)?
A: 22.4 pg

Q: And the MCHC (24 h)?
A: 33.4%

Q: What about the MCV (24 h) of the same molecule?
A: 67.1 fL

Q: And the Mono (24 h)?
A: 7.4%

Q: And the Neu (24 h)?
A: 11.4%

Q: What about the PT (24 h) of the same molecule?
A: 12 s

Q: What about the Plat (24 h) of the same molecule?
A: 113.4 x10_4/uL

Q: And the RBC (24 h)?
A: 574.6 x10_4/ul

Q: What about the Ret (24 h) of the same molecule?
A: 8%

Q: What about the WBC (24 h) of the same molecule?
A: 137.9 x10_2/uL

Q: What about the KIDNEY_L (24 h) of the same molecule?
A: 0.9 g

Q: And the KIDNEY_R (24 h)?
A: 1 g

Q: What about the KIDNEY_TOTAL (24 h) of the same molecule?
A: 1.9 g

Q: And the LIVER (24 h)?
A: 10.7 g

Q: And the ALP (24 h)?
A: 951.8 IU/L

Q: And the ALT (24 h)?
A: 38.6 IU/L

Q: What about the AST (24 h) of the same molecule?
A: 69.6 IU/L

Q: What about the BUN (24 h) of the same molecule?
A: 18.8 mg/dL

Q: What about the CRE (24 h) of the same molecule?
A: 0.5 mg/dL

Q: And the Ca (24 h)?
A: 11.1 mg/dL

Q: And the Cl (24 h)?
A: 104.2 meq/L

Q: And the DBIL (24 h)?
A: 0.012 mg/dL

Q: What about the GLC (24 h) of the same molecule?
A: 183.8 mg/dL

Q: And the IP (24 h)?
A: 8.8 mg/dL

Q: And the K (24 h)?
A: 4.9 meq/L

Q: And the LDH (24 h)?
A: 107.4 IU/L

Q: And the Na (24 h)?
A: 137.4 meq/L

Q: What about the PL (24 h) of the same molecule?
A: 160.8 mg/dL

Q: What about the RALB (24 h) of the same molecule?
A: 4 g/dL

Q: What about the TBIL (24 h) of the same molecule?
A: 0.3 mg/dL

Q: What about the TC (24 h) of the same molecule?
A: 80 mg/dL

Q: And the TG (24 h)?
A: 134.2 mg/dL

Q: What about the TP (24 h) of the same molecule?
A: 5.8 g/dL

Q: What about the gamma-GTP (24 h) of the same molecule?
A: 1.8 IU/L
